Assay results: patent US11492667B2, “Compositions and methods for detecting molecular targets on chromosomal DNA” (New England Biolabs, Inc., priority 2020, dated 2022)

Columns and labels:
[1] = tested on: Nt.CviPII-Protein A fusion; experiment: Inhibition of nicking activity of Nt.CviPII-Protein A fusion by heparin sodium salt; type: biochemical; conditions: 2.5 units Nt.CviPII-Protein A, 0.5 μg pUC19, NEBuffer 2, 40 minutes 37° C.
Protocol: In lanes 1-9, 2.5 units of NEFP was added to 0.5 μgs of plasmid DNA in the presence of increasing amounts of heparin (0.15-10 mg/ml). Digestion was not observed when 0.3 mg heparin/ml or greater amounts are present.
To determine the effect of heparin sodium salt on the inhibition of nicking activities of Nt.CviPII-Protein A fusion, reaction tubes containing 10, 5, 2.5, 1.25, 0.62, 0.31, 0.15, and 0 mg/ml heparin, sodium salt were added to a 50 μl reaction, consisting of 5 μl 10×NEBuffer 2, 2.5 units Nt.CviPII-Protein A (as described in Example 1(B)), and 0.5 μg pUC19 DNA and incubated for 40 minutes 37° C. 10 μl of DNA loading dye mix (5×) was added to the samples and were resolved on a 10% polyacrylamide gel. The gel was stained with SYBR® Green (Molecular Probes, Eugene, Oreg.) and scanned on a Typhoon® imager (GE Healthcare Bio-Sciences, Marlborough, Mass.).

[2] = tested on: DNA-Nt.CviPII-Protein A complex; experiment: Gel-shift assay: dissociation of DNA-Nt.CviPII-Protein A complex by heparin; type: binding
Protocol: From left to right: C is a control that is DNA in the absence of a NEFP or heparin. 0 is a control in which nicking endonuclease was added to DNA in the absence of heparin. The DNA-NEFP complex (DNA-Nt.CviPII-Protein A complex) is seen as a band at the top of the lane.
To establish that the inhibitory effect of heparin, sodium salt in untethered Nt.CviPII-Protein A fusion activity was due to selective dissociation between DNA substrate and fusion enzyme, a gel-shift assay was performed. Double stranded DNA substrate containing constant amounts of Nt.CviPII binding domains (CCA, 5′[…]-F, F=fluorescein (SEQ ID NO:9)) and 3.2 μM Nt.CviPII-Protein A fusion were combined in the presence of 1×NEBuffer 2 in the absence of magnesium for 30 minutes at room temperature to enable an enzyme-substrate complex to be formed. Increasing amounts of heparin, sodium salt (0, 2.3, 4.6, […], 20, 42, 83, 166, 330 μg/ml) was added to the total 50 μl reaction volume. It was observed that a heparin concentration of greater than 0.2 mgs/ml (at least […]) enabled complete dissociation of the DNA-Nt.CviPII-Protein A complex as observed by the appearance of bands corresponding to DNA alone in a native 6% retardation gel (Thermo Fisher Scientific, Waltham, Mass.). It was concluded that Heparin causes dissociation Nt.CviPII-Protein A fusions from the bound substrate DNA (FIG. 2B).

[3] = tested on: antibody-Protein A/G complex; experiment: Effect of heparin on antibody-Protein A/G complex (magnetic beads, SDS gel); type: binding; conditions: 0.125, 0.25, 0.5 and 1 mg/ml Heparin, 30 minutes, room temperature, Sodium Salt
Description: The numbers on the top indicate added heparin quantity in the reaction mgs/ml.
Antibody heavy and light chains that are bound to Protein A/G can be released by boiling and resolved on an SDS gel (B). Any antibody that was free in solution having been eluted or displaced by heparin from Protein A/G could be visualized without boiling (E).
To determine the effect of heparin on the formation of the antibody-Protein A/G complex, 5 mgs of immobilized and covalently cross-linked protein A/G magnetic beads were bound to 50 μgs of IgG molecules in a 50 μl reaction volume containing 1×PBST at room temperature for 30 minutes. The complex was washed 3 times using 1 ml of 1×PBST and incubated with 0.125, 0.25, 0.5 and 1 mg/ml Heparin for 30 minutes at room temperature in 25 μl total volume. The bead-bound (B) and unbound or bead elution (E) fractions were collected, SDS sample buffer (New England Biolabs, Ipswich, Mass.) was added and the samples were incubated at 95° C. for 5 minutes. Both B and E samples were resolved on tricine 10% acrylamide gel and stained for protein.

[4] = tested on: pBR322 circular double stranded DNA; experiment: Nicking activity of Protein G/A-gHNH fusion on plasmid DNA (agarose gel); type: biochemical; conditions: 1 μg pBR322, NEBuffer 2 with manganese ions, 50 μl, 37° C., 1 hour
Protocol: The nicking activity of Protein G-HNH was compared to a second non-fused nicking endonuclease (Nt.CviPII) (2 units) in the same gel to determine a generalized and consistent cleavage profile and was also compared to a control in the lane labeled 0 containing no nicking endonuclease either fused or unfused.
Protein G/A-gHNH fusion nicking activity was tested on pBR322 circular double stranded DNA using NEBuffer 2 in which magnesium ions were replaced by the same amount of manganese ions (1 mM). 1 μg of plasmid was used with 0.03 to 2 units of Protein G/A-gHNH fusion enzyme in a two-fold serial dilutions (2, 1, 0.5, 0.25, 0.125, 0.06, 0.03 units) in a total volume of 50 μl incubated at 37° C. for 1 hour. 10 μl of DNA loading dye mix (5×) was added to the nicked DNA. The nicked DNA samples were resolved on a 1% agarose gel and visualized under UV light. DNA fragment size was estimated along with 2 log DNA ladder (New England Biolabs, Ipswich, Mass.) and positive control Nt.CviPII (2 units) of the non-fused nicking endonuclease, (New England Biolabs, Ipswich, Mass.) digested pBR322 DNA (FIG. 1B). […] A representative figure supporting this conclusion is provided in FIG. 1B for Protein G-gHNH fusions.

Nt.CviPII-Protein A fusion, sequence (as listed by the source): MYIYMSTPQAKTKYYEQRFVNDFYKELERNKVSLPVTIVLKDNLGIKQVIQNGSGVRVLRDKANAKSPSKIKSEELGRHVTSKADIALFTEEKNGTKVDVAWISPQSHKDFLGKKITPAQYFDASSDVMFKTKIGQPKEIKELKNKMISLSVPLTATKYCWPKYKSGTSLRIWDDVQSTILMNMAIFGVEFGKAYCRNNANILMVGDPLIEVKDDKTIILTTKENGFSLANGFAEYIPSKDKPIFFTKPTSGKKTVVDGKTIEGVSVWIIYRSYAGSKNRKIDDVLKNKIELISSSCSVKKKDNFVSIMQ

For Heparin Sodium Salt, which “heparin concentration giving total inhibition of nicking (no digestion)” value [1] is on record?
Its value is 0.15 to 0.31 mg/mL.

And the “heparin concentration giving total inhibition of nicking (no digestion)” value ([1]; listed as heparin)?
The value was at least 0.3 mg/mL.

And the “heparin concentration enabling complete dissociation of the DNA-Nt.CviPII-Protein A complex” value ([2]; 3.2 μM Nt.CviPII-Protein A, fluorescein dsDNA, NEBuffer 2 without magnesium, room temperature)?
The value was “greater than 0.2 mgs/ml”.

What about the “heparin concentration at which NEFP is released entirely from the DNA” value ([2]; FIG. 2B legend, buffer without magnesium ions) of the same molecule?
Its value is over 4.6 mg/mL.

And the “effect of heparin on antibody bound to Protein A/G beads” value ([3]; listed as Heparin)?
The value was “cannot dissociate Protein A/G-antibody reaction”.

What about the “effect of heparin on antibody bound to Protein A/G beads” value ([3]; listed as heparin) of the same molecule?
Its value is “no elution or displacement of antibody occurred”.

B1: Protein G-gHNH: NEFP: Protein G fused via linker to gHNH nicking endonuclease, SEQ ID NO: 5 (protein)
chain: MKGETTTEAVDAATAEKVFKQYANDNGVDGEWTYDDATKTFTVTEKPEVIDASELTPAVTTYKLVINGKTLKGETTTEAVDAATAEKVFKQYANDNGVDGEWTYDDATKTFTVTEKPEVIDASELTPAVTTYKLVINGKTLKGETTTKAVDAETAEKAFKQYANDNGVDGVWTYDDATKTFTVTEGSATIVKKPLRPCCEFHCYNLTRERYCEEHRYKEKETQQDKNRYYDRFKRDKESTAFYRSKAWERLREQALMRDKGLCLHCKNNRKIKVADMVDHIIPIKVDPSLKLKLENLQSLCNPCHNRKTAEDKKKYG
How did the “amount of fusion enzyme giving partial digestion of the DNA” value [4] turn out when B1 was run?
Its value is 0.03 units.
